The nature of series [1]: Single-dose pharmacokinetics after IV bolus administration of EK-ECP. In kind it is in vivo, male Sprague–Dawley rats. The conditions noted are these: IV bolus 10 mg/kg EK-ECP; for T1/2 (terminal half-life) / half-life / AUC(0-t) / Vd / AUC(0-inf) / MRT last / C0: mean (CV); for T1/2 (terminal half-life) / half-life / AUC(0-t) / Vd: 10 mg/kg; for Tlast: median (minimum-maximum); for half-life / AUC(0-t) / Vd / AUC(0-inf) / MRT last / clearance / C0: male, Sprague-Dawley, rat; for half-life / AUC(0-t) / Vd: iv; for clearance: read-out: Mean clearance (Cl) (converted). The method, then: EK-ECP was administered to male Sprague–Dawley rats by either IV bolus (Group 1, 10 mg/kg) or oral gavage (Groups 2, 3 or 4, at 10, 100 or 1000 mg/kg, respectively) administration. Blood collection intervals were pre dose (0), and 0.25, 0.5, 1, 2, 4, 6, 8, 12, 24 and 36 h post dose. Plasma samples were analyzed for concentrations of 8,8′-bieckol, dieckol, and PFF-A; all pre-dose sample results were less than the lower limit of quantitation (LLOQ < 1 ng/mL). The time profiles of the plasma concentrations of 8,8′-bieckol, dieckol, and PFF-A in individual animals are illustrated in Figure 4. The mean pharmacokinetic parameters and corresponding coefficient of variation (CV) following IV administration of 10 mg/kg EK-ECP to male rats are illustrated in Table 1. Those following oral administrations of 10, 100 and 1000 mg/kg EK-ECP to male rats are illustrated in Table 2.
Total of 20 male CD® [Crl:CD®(SD)] rats (approximately 11.5 weeks of age) obtained from Charles River Laboratories (Portage, MI, USA) were used in our study. These included five rats with both jugular and femoral vein cannulations, and 15 rats with jugular vein cannulations. Of the 20 animals received, 16 male rats were placed in the study, comprising four rats with both jugular and femoral vein cannulations, and 12 rats with jugular vein cannulations. The rats were housed in the Mattawan facility of MPI Research Inc (currently Charles River Laboratories, Mattawan, MI, USA). Animal welfare for this study was in compliance with the U.S. Department of Agriculture’s (USDA) Animal Welfare Act (9 CFR Parts 1, 2 and 3). This facility maintained an animal welfare assurance statement with the National Institutes of Health Office of Laboratory Animal Welfare. All procedures were approved before the study by the institutional animal care utilization committee. Animals were individually housed and fed a basal diet of Lab Diet Certified Rodent Diet #5002, PMI Nutrition International, Inc. Food and water was available ad libitum except during fasting periods, when food was withheld, and during any required restraint periods, when both food and water were withheld. Animal rooms were maintained at (20 ± 2) °C and (50 ± 20)% relative humidity with a 12 h light/dark cycle throughout the study.
For intravenous administration, EK-ECP was dissolved in 70/25/5 (v/v) phosphate-buffered saline (PBS)/propylene glycol/ethanol (pH 5.1 final concentration of 2 mg/mL) and stabilized at room temperature for 24 h. For oral administration, after an amount of EK-ECP appropriate to the final targeted formulation concentrations was weighed and placed in a bottle, a small amount of the vehicle (water for injection) was added and mixed using a vortex mixer and heated to between 60 to 70 °C until homogeneously suspended. Additional amounts of the vehicle were gradually added to yield the targeted EK-ECP concentrations (1, 10, and 100 mg/mL). Dosing occurred within 4 h after preparation completion. The individual constituent doses of dieckol, 8,8′-bieckol, and PFF-A in each dosing formulation were analyzed by RP-HPLC followed by interpolation of the corresponding area% to the calibration curve prepared with known concentrations of isolated standards. The animals were fasted for a minimum of 4 h prior to dosing and through the first 4 h of blood sample collection. Each animal in Group 1 received a single intravenous (IV) dose of the 10 mg/kg EK-ECP. The intravenous doses were administered as a slow bolus injection over 5 min through the femoral vein cannula. The cannula was flushed with approximately 0.3 mL of sterile 0.9% sodium chloride for injection, USP, immediately following dosing. Each animal in Groups 2, 3 and 4 received a single oral (PO) gavage dose of the appropriate test article formulation, as outlined Table 3. Oral gavage dosing formulations were continuously stirred throughout dosing. […]

For another series, the system named is mouse-model. Also on record: method as in PMID 16042079. Particulars: oral administration, mouse model ref 64; cited from earlier work.
A further series concerns gut microbial ecosystem. The conditions noted are these: hydroethanolic extract of Silvetia compressa ref 73; cited from earlier work.
A short description of series [2]: Stability at pH 2 by UV–Vis spectroscopy (gastric juice degradation). The conditions noted are these: period of at least 5 h, unpublished data. In kind it is physicochemical. From the text: To address the potential reduction in bioavailability due to degradation by gastric juice, we evaluated the stability of dieckol as a representative compound of phlorotannins at a pH of 2 using UV–Vis spectroscopy.

For series [3] the following is noted: stated in the discussion without data or reference; cited from earlier work.
Setting [4] is: plasma, ln(2)·MRTlast, read-out: Effective T1/2 (converted).
Setting [5] is: plasma, read-out: T1/2 (terminal half-life) (converted).

Structures are written as SMILES. Where two headings read alike, the source gives them in different places. Marks after values point to notes of the source that are not given here.

Data on three molecules can be found in publication PMC11595589, “A Pharmacokinetic and Bioavailability Study of Ecklonia cava Phlorotannins Following Intravenous and Oral Administration in Sprague–Dawley Rats” (Marine Drugs, 2024).

One may read the AUC(0-inf) as the area under the concentration-time curve extrapolated to infinity. Higher therefore signals high exposure. A word on the MRT last: it is the average time that molecules of a dose stay in the body. By clearance is commonly meant the volume of plasma or blood freed of the substance per unit of time.

Take `Oc1cc(O)cc(Oc2c(O)cc(O)c3c2Oc2c(O)cc(Oc4c(O)cc(Oc5c(O)cc(O)c6c5Oc5c(O)cc(O)cc5O6)cc4O)cc2O3)c1` [dieckol]: in series [1], the “plasma concentrations quantifiable up to” value was determined as 36 h, the “T1/2 (terminal half-life)” value is given as 11.9 (7) h and the Tlast is on record as 36 (36–36) h. Besides, the half-life in series [1] (setting [4]) was 88.8 min. In series [1] (plasma, read-out: AUC(0–24h)), the AUC(0-t) was 5190 ng·h/mL. Further, the AUC(0-t) in series [1] (plasma, read-out: AUCTlast) came out at 5290 ng·h/mL. The half-life in series [1] (setting [5]) was about 714 min. Besides, in series [1] (plasma, read-out: Vss), the Vd worked out at 0.57 L/kg. For the same molecule, the Vd in series [1] (plasma, read-out: Vz) was found to be 3.35 L/kg. In series [1] (plasma), the AUC(0-inf) worked out at 5390 ng·h/mL, the MRT last was determined as 2.14 h, the clearance was 3.22 mL/min/kg and the C0 was determined as 8890 ng/mL. Moreover, the “oral dose with CNS-directed effect (as low as)” value in the series on mouse-model is listed as 1.0 mg/kg/bw. The metabolism during fermentation entry in the series with gut microbial ecosystem is listed as “metabolized within eight hours of fermentation”. Besides, the “stability at pH 2” value in series [2] was “no significant changes”.
With `Oc1cc(O)cc(Oc2c(O)cc(O)c3c2Oc2c(cc(O)c(-c4c(O)cc5c(c4O)Oc4c(Oc6cc(O)cc(O)c6)c(O)cc(O)c4O5)c2O)O3)c1` [8,8′-bieckol], in series [1], the “plasma concentrations quantifiable up to” value was found to be 36 h, the “T1/2 (terminal half-life)” value is 9.42 (9) h and the Tlast was 36 (36–36) h. Besides, in series [1] (in vivo, ln(2)·MRTlast, read-out: Effective T1/2 (converted)), the half-life was 78 min. For the same molecule, the AUC(0-t) in series [1] (in vivo, read-out: AUC(0–24h)) turned out to be 6540 ng·h/mL. Also, the AUC(0-t) in series [1] (in vivo, read-out: AUCTlast) was found to be 6620 ng·h/mL. Further, in series [1] (in vivo, read-out: T1/2 (terminal half-life) (converted)), the half-life is about 565 min. Moreover, the Vd in series [1] (in vivo, read-out: Vss) stood at 0.366 L/kg. Also, the Vd in series [1] (in vivo, read-out: Vz) came out at 2.2 L/kg. For the same molecule, in series [1] (in vivo), the AUC(0-inf) was determined as 6670 ng·h/mL, the MRT last amounted to 1.88 h and the clearance was 2.7 mL/min/kg. Further, the C0 in series [1] (in vivo, plasma) amounted to 7220 ng/mL.
On to `Oc1cc(O)cc(Oc2c(O)cc(O)c3c2Oc2c(O)cc4oc5c(Oc6cc(O)cc(O)c6)c(O)cc(O)c5c4c2O3)c1` [PFF-A, phlorofucofuroeckol-A], for which, in series [1], the “plasma concentrations quantifiable up to” value came out at 2 h, the “T1/2 (terminal half-life)” value is listed as 0.731 (4) ^c h and the Tlast was 2 (1–2) h. The half-life in series [1] (setting [4]) is 21.6 min. Moreover, the AUC(0-t) in series [1] (plasma, read-out: AUC(0–24h)) came out at 9.03 ng·h/mL. In series [1] (plasma, read-out: AUCTlast), the AUC(0-t) was 7.81 ng·h/mL. In addition, in series [1] (setting [5]), the half-life is about 43.9 min. Besides, in series [1] (plasma, read-out: Vss), the Vd worked out at 77.6 L/kg. In addition, the Vd in series [1] (plasma, read-out: Vz) was 89.2 L/kg. In addition, in series [1] (plasma), the AUC(0-inf) amounted to 10.1 ng·h/mL, the MRT last stood at 0.52 h, the clearance was 1400 mL/min/kg and the C0 stood at 12.8 ng/mL. Also, the “oral dose with CNS-directed effect (as low as)” value in the series on mouse-model is 0.2 mg/kg/bw. For the same molecule, in series [3], the solubility in water entry is on record as “virtually insoluble in water”.
